In US11279697B2, “Aromatic derivative, preparation method for same, and medical applications thereof” (BIOARDIS LLC, priority 2017, dated 2022):

Molecular target: human FGFR4 protein (460-802 amino acids) (Homo sapiens (Human), UniProt P22455)
Test: FGFR4 Activity Inhibition Test (HTRF KinEASE-TK in vitro kinase assay)
Format: biochemical
Details: compound-enzyme incubation 60 min at room temperature, kinase reaction 37° C. 40 min, 10 concentration points
Protocol: The influence of the compound of the present invention on the activity of the tyrosine kinase FGFR4 was evaluated by an in vitro kinase assay experiment. The experimental method is summarized as follows: A HTRF® KinEASE™-TK 20000 tests kinase assay kit from CISBIO Corp. was used. The kit provided a biotin-labeled substrate, an EU-labeled phosphorylation site-specific antibody, and XL665-labeled avidin and a related buffer. FGFR4 phosphorylated the substrate, Eu-Ab identified the phosphorylated substrate, and XL665-SA binded to the biotin on the substrate, making Eu get closer to XL665, thus generating the HTRF signal. Changes in the activity of kinase was detected by reading the intensity of the HTRF signal. In the kinase assay experiment, there were mainly two steps of reaction: kinase reaction and assay reaction, respectively. In the kinase reaction, the kinase consumed ATP to phosphorylate the substrate, and at the same time produced a substrate containing a phosphate group. In the assay reaction, an assay reagent was added to terminate the kinase reaction. At the same time, the specific antibody and the XL665-labeled avidin in the assay reagent were binded to the phosphate group on the substrate and biotin respectively to generate HTRF signals. The signal intensity was directly proportional to the phosphorylation level of the substrate, and thereby the activity of the kinase FGFR4 could be quantitatively assayed. During the assay, the binding and incubation of the compound with the enzyme was carried out at room temperature for 60 min. The kinase reaction was carried out at a constant temperature of 37° C. for 40 min. […] The kinase substrates were TK (commercially available from Cisbio) and ATP (Sigma). The optical signals were read by a microplate reader TECAN Spark 10M plate reader (TECAN). The kinase reaction buffer comprised 1× Enzymatic buffer (CISBIO) 5 mM MgCl2 (Sigma) and 1 mM DTT (Sigma). […] First, the compound was dissolved and diluted with 100% DMSO into a 96-well plate at 3 concentrations: 4 mM, 40 μM, and 0.4 μM. […] Each concentration point was provided with two copy holes (starting point 10 μM, 3-fold dilution). First, 6 μL of the kinase solution was added into the 384-well assay plate, mixed uniformly and then incubated at room temperature for 60 min. Then 4 μL of the substrate reaction solution was added, and the total reaction volume was 10 μL. […] Subsequently, 10 μL of the kinase assay reagent was added and the reaction was terminated. Then the numerical values were read on the TECAN plate reader. The inhibition percentage was calculated based on the following formula: % inhibition=[1−(RLUcompound−RLUmin)/(RLUmax−RLUmin)]×100 wherein RLUcompound is the luminescence reading at the given compound concentration, RLUmin is the luminescence reading without the addition of kinase, and RLUmax is the luminescence reading without the addition of the compound. IC50 of the compound was calculated by the XLfit program in Excel.

Sequence of human FGFR4 protein (460-802 amino acids) (P22455 460-802): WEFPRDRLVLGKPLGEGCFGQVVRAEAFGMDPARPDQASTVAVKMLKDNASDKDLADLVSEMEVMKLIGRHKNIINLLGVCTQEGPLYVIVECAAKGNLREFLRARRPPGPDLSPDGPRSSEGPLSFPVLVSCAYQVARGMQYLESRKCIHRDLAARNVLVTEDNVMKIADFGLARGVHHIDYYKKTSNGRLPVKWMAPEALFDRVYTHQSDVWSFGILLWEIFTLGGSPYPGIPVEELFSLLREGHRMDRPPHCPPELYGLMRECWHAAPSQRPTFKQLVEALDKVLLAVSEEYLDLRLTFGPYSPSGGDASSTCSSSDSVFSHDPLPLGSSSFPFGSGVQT

IC50 | Structure (SMILES)
5.73 nM | C=CC(=O)Nc1cnn(C)c1-c1n[nH]c2c1CC[C@@H](c1c(F)c(OC)cc(OC)c1F)C2 (single isomer, unassigned) [Compound 281-P1, N-(5-(6-(2,6-difluoro-3,5-dimethoxyphenyl)-4,5,6,7-tetrahydro-1H-indazol-3-yl)-1-methyl-1H-pyrazol-4-yl)acrylamide]
2.96 nM | C=CC(=O)Nc1cnn(C)c1-c1n[nH]c2c1CC[C@@H](c1c(F)c(OC)cc(OC)c1F)C2 (single isomer, unassigned) [Compound 281-P2, N-(5-(6-(2,6-difluoro-3,5-dimethoxyphenyl)-4,5,6,7-tetrahydro-1H-indazol-3-yl)-1-methyl-1H-pyrazol-4-yl)acrylamide]
190 nM | C=CC(=O)Nc1ccc(N2CCN(C)CC2)cc1-c1n[nH]c2c1CC[C@@H](c1c(Cl)c(OC)cc(OC)c1Cl)C2 (single isomer, unassigned) [Compound 283-P1, N-(2-(6-(2,6-dichloro-3,5-dimethoxyphenyl)-4,5,6,7-tetrahydro-1H-indazol-3-yl)-4-(4-methylpiperazin-1-yl)phenyl)acrylamide]
45 nM | C=CC(=O)Nc1ccc(N2CCN(C)CC2)cc1-c1n[nH]c2c1CC[C@@H](c1c(Cl)c(OC)cc(OC)c1Cl)C2 (single isomer, unassigned) [Compound 283-P2, N-(2-(6-(2,6-dichloro-3,5-dimethoxyphenyl)-4,5,6,7-tetrahydro-1H-indazol-3-yl)-4-(4-methylpiperazin-1-yl)phenyl)acrylamide]
158 nM | C=CC(=O)Nc1ccc(Cl)cc1-c1n[nH]c2c1CC[C@@H](c1c(Cl)c(OC)cc(OC)c1Cl)C2 (single isomer, unassigned) [Compound 287-P1, N-(4-chloro-2-(6-(2,6-dichloro-3,5-dimethoxyphenyl)-4,5,6,7-tetrahydro-1H-indazol-3-yl)phenyl)acrylamide]
91.1 nM | C=CC(=O)Nc1ccc(Cl)cc1-c1n[nH]c2c1CC[C@@H](c1c(Cl)c(OC)cc(OC)c1Cl)C2 (single isomer, unassigned) [Compound 287-P2, N-(4-chloro-2-(6-(2,6-dichloro-3,5-dimethoxyphenyl)-4,5,6,7-tetrahydro-1H-indazol-3-yl)phenyl)acrylamide]
210 nM | C=CC(=O)Nc1cc(Cl)ccc1-c1n[nH]c2c1CC[C@@H](c1c(Cl)c(OC)cc(OC)c1Cl)C2 (single isomer, unassigned) [Compound 289-P2, N-(5-chloro-2-(6-(2,6-dichloro-3,5-dimethoxyphenyl)-4,5,6,7-tetrahydro-1H-indazol-3-yl)phenyl)acrylamide]
3.4 nM | C=CC(=O)Nc1ccc(N2CCN(C)CC2)cc1-c1n[nH]c2c1CC[C@@H](c1c(F)c(OC)cc(OC)c1F)C2 (single isomer, unassigned) [Compound 301-P1, N-(2-(6-(2,6-difluoro-3,5-dimethoxyphenyl)-4,5,6,7-tetrahydro-1H-indazol-3-yl)-4-(4-methylpiperazin-1-yl)phenyl)acrylamide]
11.8 nM | C=CC(=O)Nc1ccc(N2CCN(C)CC2)cc1-c1n[nH]c2c1CC[C@@H](c1c(F)c(OC)cc(OC)c1F)C2 (single isomer, unassigned) [Compound 301-P2, N-(2-(6-(2,6-difluoro-3,5-dimethoxyphenyl)-4,5,6,7-tetrahydro-1H-indazol-3-yl)-4-(4-methylpiperazin-1-yl)phenyl)acrylamide]
6 nM | C=CC(=O)Nc1cnn(C)c1-c1n[nH]c2c1CC[C@@H](c1c(F)c(OC)cc(OC)c1Cl)C2 (single isomer, unassigned) [Compound 303-P1, N-(5-(6-(2-chloro-6-fluoro-3,5-dimethoxyphenyl)-4,5,6,7-tetrahydro-1H-indazol-3-yl)-1-methyl-1H-pyrazol-4-yl)acrylamide]
5.5 nM | C=CC(=O)Nc1cnn(C)c1-c1n[nH]c2c1CC[C@@H](c1c(F)c(OC)cc(OC)c1Cl)C2 (single isomer, unassigned) [Compound 303-P2, N-(5-(6-(2-chloro-6-fluoro-3,5-dimethoxyphenyl)-4,5,6,7-tetrahydro-1H-indazol-3-yl)-1-methyl-1H-pyrazol-4-yl)acrylamide]
29.2 nM | C=CC(=O)Nc1ccccc1-c1n[nH]c2c1CCC(c1c(F)c(OC)cc(OC)c1F)C2 (stereo not drawn) [Compound 093, N-(2-(6-(2,6-difluoro-3,5-dimethoxyphenyl)-4,5,6,7-tetrahydro-1H-indazol-3-yl)phenyl)acrylamide]
158 nM | C=CC(=O)Nc1ccccc1-c1n[nH]c2c1CCC(c1cc(OC)cc(OC)c1F)C2 (stereo not drawn) [Compound 114, N-(2-(6-(2-fluoro-3,5-dimethoxyphenyl)-4,5,6,7-tetrahydro-1H-indazol-3-yl)phenyl)acrylamide]

The remaining lines, values behind:

Structure (SMILES) | IC50
C=CC(=O)Nc1cc(Cl)ccc1-c1n[nH]c2c1CC[C@@H](c1c(Cl)c(OC)cc(OC)c1Cl)C2 (single isomer, unassigned) [Compound 289-P1, N-(5-chloro-2-(6-(2,6-dichloro-3,5-dimethoxyphenyl)-4,5,6,7-tetrahydro-1H-indazol-3-yl)phenyl)acrylamide] | 109 nM
C=CC(=O)Nc1cnn(C)c1-c1n[nH]c2c1CC[C@@H](c1cc(OC)cc(OC)c1F)C2 (single isomer, unassigned) [Compound 302-P1, N-(5-(6-(2-fluoro-3,5-dimethoxyphenyl)-4,5,6,7-tetrahydro-1H-indazol-3-yl)-1-methyl-1H-pyrazol-4-yl)acrylamide] | 85.5 nM
C=CC(=O)Nc1cnn(C)c1-c1n[nH]c2c1CC[C@@H](c1cc(OC)cc(OC)c1F)C2 (single isomer, unassigned) [Compound 302-P2, N-(5-(6-(2-fluoro-3,5-dimethoxyphenyl)-4,5,6,7-tetrahydro-1H-indazol-3-yl)-1-methyl-1H-pyrazol-4-yl)acrylamide] | 35.4 nM
C=CC(=O)Nc1cnn(C)c1-c1n[nH]c2c1CC[C@@H](c1cc(OC)cc(OC)c1)C2 (single isomer, unassigned) [Compound 310-P1, N-(5-(6-(3,5-dimethoxyphenyl)-4,5,6,7-tetrahydro-1H-indazol-3-yl)-1-methyl-1H-pyrazol-4-yl)acrylamide] | 446 nM
C=CC(=O)Nc1cnn(C)c1-c1n[nH]c2c1CC[C@@H](c1cc(OC)cc(OC)c1)C2 (single isomer, unassigned) [Compound 310-P2, N-(5-(6-(3,5-dimethoxyphenyl)-4,5,6,7-tetrahydro-1H-indazol-3-yl)-1-methyl-1H-pyrazol-4-yl)acrylamide] | 171 nM
C=CC(=O)Nc1cnn(C)c1-c1n[nH]c2c1CC[C@@H](c1cc(OC)cc(OC)c1Cl)C2 (single isomer, unassigned) [Compound 311-P1, N-(5-(6-(2-chloro-3,5-dimethoxyphenyl)-4,5,6,7-tetrahydro-1H-indazol-3-yl)-1-methyl-1H-pyrazol-4-yl)acrylamide] | 203 nM
C=CC(=O)Nc1cnn(C)c1-c1n[nH]c2c1CC[C@@H](c1cc(OC)cc(OC)c1Cl)C2 (single isomer, unassigned) [Compound 311-P2, N-(5-(6-(2-chloro-3,5-dimethoxyphenyl)-4,5,6,7-tetrahydro-1H-indazol-3-yl)-1-methyl-1H-pyrazol-4-yl)acrylamide] | 129 nM
CC#CC(=O)Nc1ccccc1-c1cc(CCc2c(Cl)c(OC)cc(OC)c2Cl)[nH]n1 [Compound 096, N-(2-(5-(2,6-dichloro-3,5-dimethoxyphenethyl)-1H-pyrazol-3-yl)phenyl)but-2-ynoic amide] | 348 nM
C=CC(=O)Nc1cc(F)ccc1-c1n[nH]c2c1CCC(c1c(Cl)c(OC)cc(OC)c1Cl)=C2 [Compound 296, N-(2-(6-(2,6-dichloro-3,5-dimethoxyphenyl)-4,5-dihydro-1H-indazol-3-yl)-5-fluorophenyl)acrylamide] | 118 nM
C=CC(=O)Nc1ccc(F)cc1-c1n[nH]c2c1CCC(c1c(Cl)c(OC)cc(OC)c1Cl)=C2 [Compound 297, N-(2-(6-(2,6-dichloro-3,5-dimethoxyphenyl)-4,5-dihydro-1H-indazol-3-yl)-4-fluorophenyl)acrylamide] | 236 nM
C=CC(=O)Nc1ccc(N2CCOCC2)cc1-c1n[nH]c2c1CCC(c1c(Cl)c(OC)cc(OC)c1Cl)=C2 [Compound 300, N-(2-(6-(2,6-dichloro-3,5-dimethoxyphenyl)-4,5-dihydro-1H-indazol-3-yl)-4-morpholinophenyl)acrylamide] | 504 nM
